Patent EP4574811A1, “CRYSTALLINE FORMS OF ELACESTRANT DIHYDROCHLORIDE” (SANDOZ AG, priority 2023, dated 2025)
Where a name gives a salt, the structure may show the parent alone.

Assay: Dissolution testing (aqueous solubility in water at 24°C)
Format: physicochemical
Details: dihydrochloride; for stability of the supersaturated solution: 51.9 mg/ml solution in water at 24 °C; for Aqueous solubility (concentration of clear solution): in water at 24 °C
Procedure: Aqueous solubility was determined dissolution experiments of Elacestrant dihydrochloride of the present invention in water at 24°C.

Structure (SMILES) | stability of the supersaturated solution | stability of the supersaturated solution (listed as form B) | Aqueous solubility (concentration of clear solution) | Aqueous solubility (concentration of clear solution) (listed as form A)
CCNCCc1ccc(CN(CC)c2cc(OC)ccc2[C@@H]2CCc3cc(O)ccc3C2)cc1 [Form B, (6R)-6-(2-(ethyl((4-(2-(ethylamino)ethyl)phenyl)-methylamino)-4-methoxyphenyl)-5,6,7,8-Tetrahydronaphthalen-2-oldihydrochloride] | instable | precipitation of Elacestrant dihydrochloride was occurred | 51.9 mg/mL | 
CCNCCc1ccc(CN(CC)c2cc(OC)ccc2[C@@H]2CCc3cc(O)ccc3C2)cc1 [Form A, (6R)-6-(2-(ethyl((4-(2-(ethylamino)ethyl)phenyl)-methylamino)-4-methoxyphenyl)-5,6,7,8-Tetrahydronaphthalen-2-oldihydrochloride] |  |  | 34,5 mg/ml | about 34.5 mg/ml
CCNCCc1ccc(CN(CC)c2cc(OC)ccc2[C@@H]2CCc3cc(O)ccc3C2)cc1 [Form 1, (6R)-6-(2-(ethyl((4-(2-(ethylamino)ethyl)phenyl)-methylamino)-4-methoxyphenyl)-5,6,7,8-Tetrahydronaphthalen-2-oldihydrochloride, reference compound] |  |  | less than 9,2 mg/ml | 
